Experimental data published in article PMC3655264, “A Large-Scale Conformational Change Couples Membrane Recruitment to Cargo Binding in the AP2 Clathrin Adaptor Complex” (Cell, 2010).

Experiments:
Assay in all cases: SPR, PtdIns4,5P2-containing liposomes on L1 chip
AP2 core [1] = target: T1, AP2 core (Rattus norvegicus; Mus musculus; Homo sapiens, UniProt P18484+P63010+P84092); details: apparent, multivalent membrane binding (sites on alpha, beta2, mu2); no cargo peptide; 10 mM Tris pH 8.7, 250 mM NaCl
T1 construct: gene Ap2a2; heterotetrameric 200 kDa core: alpha trunk-GST, His6-beta2 trunk, mu2 with myc tag (MEQKLI) in surface loop at residue 236, untagged sigma2; E. coli; with AP-2 complex subunit sigma

AP2 core [2] = target: T2, AP2 core (Rattus norvegicus; Mus musculus; Homo sapiens, UniProt P18484+P63010+P84092, form not given, species not given); details: apparent, multivalent membrane binding; five lysines of the second basic region (Lys330-Lys373) of C-mu2 to Glu, which five not told
T2 construct: gene Ap2a2; heterotetrameric 200 kDa core: alpha trunk-GST, His6-beta2 trunk, mu2 with myc tag (MEQKLI) in surface loop at residue 236, untagged sigma2; E. coli; with AP-2 complex subunit sigma
Description: SPR, PtdIns4,5P2-containing liposomes on L1 chip on AP2 core | (5K>E) slightly weakens the binding of AP2 cores to PtdIns4,5P2-containing membranes
Target sequence in this assay (P18484 1-620): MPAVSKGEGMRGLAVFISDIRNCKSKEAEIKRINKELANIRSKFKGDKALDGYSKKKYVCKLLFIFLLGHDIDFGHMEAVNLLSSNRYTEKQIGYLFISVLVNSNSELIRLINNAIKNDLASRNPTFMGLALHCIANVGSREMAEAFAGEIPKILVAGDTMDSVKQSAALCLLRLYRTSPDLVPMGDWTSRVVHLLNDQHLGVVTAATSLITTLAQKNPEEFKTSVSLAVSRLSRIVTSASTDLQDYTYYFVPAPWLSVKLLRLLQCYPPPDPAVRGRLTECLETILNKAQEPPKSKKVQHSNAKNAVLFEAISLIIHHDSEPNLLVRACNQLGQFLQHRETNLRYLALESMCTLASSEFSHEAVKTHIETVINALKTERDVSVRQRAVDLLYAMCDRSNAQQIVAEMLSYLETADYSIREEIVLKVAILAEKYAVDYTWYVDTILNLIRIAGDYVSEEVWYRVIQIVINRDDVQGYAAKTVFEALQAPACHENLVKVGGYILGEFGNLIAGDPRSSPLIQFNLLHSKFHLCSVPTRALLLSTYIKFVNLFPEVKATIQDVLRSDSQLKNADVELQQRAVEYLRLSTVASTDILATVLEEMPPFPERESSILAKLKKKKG
Target sequence in this assay (P84092 whole entry): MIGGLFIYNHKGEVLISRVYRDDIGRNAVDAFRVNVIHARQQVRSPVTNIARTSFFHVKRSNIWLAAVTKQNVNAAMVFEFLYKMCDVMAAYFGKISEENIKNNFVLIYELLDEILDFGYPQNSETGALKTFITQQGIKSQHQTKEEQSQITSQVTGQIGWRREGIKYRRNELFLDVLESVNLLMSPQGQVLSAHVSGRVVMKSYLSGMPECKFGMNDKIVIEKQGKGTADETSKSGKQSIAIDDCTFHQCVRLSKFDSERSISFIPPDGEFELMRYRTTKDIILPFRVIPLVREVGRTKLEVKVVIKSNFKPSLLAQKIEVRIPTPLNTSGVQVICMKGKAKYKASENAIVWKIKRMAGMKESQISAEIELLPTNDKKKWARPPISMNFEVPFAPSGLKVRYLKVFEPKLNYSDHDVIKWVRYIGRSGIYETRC
Target sequence in this assay (P62743 whole entry, further chain): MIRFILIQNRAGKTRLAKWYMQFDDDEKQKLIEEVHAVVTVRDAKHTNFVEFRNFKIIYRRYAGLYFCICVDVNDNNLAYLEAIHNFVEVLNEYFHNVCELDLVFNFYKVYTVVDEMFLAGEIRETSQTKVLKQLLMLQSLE
Target sequence in this assay (P63010 1-592): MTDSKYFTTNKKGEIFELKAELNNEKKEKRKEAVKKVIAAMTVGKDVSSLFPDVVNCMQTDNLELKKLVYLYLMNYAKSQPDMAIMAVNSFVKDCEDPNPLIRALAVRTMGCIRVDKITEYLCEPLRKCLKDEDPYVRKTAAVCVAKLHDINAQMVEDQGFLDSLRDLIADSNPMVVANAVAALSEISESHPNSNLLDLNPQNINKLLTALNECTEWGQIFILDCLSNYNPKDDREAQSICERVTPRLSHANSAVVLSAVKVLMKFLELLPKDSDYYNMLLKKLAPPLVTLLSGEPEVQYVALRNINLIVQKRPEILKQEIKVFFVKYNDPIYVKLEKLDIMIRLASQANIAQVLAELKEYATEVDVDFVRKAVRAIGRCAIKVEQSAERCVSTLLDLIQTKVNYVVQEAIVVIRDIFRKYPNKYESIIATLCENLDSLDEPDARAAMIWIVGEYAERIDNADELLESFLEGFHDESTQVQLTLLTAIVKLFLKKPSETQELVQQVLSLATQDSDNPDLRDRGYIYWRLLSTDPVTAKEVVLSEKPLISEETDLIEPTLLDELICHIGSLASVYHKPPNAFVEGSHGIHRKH

AP2 core [3] = target: T2, AP2 core; details: apparent, multivalent membrane binding
Target sequence in this assay (P62743 whole entry): as the sequence (P62743 whole entry, further chain) above
Target sequence in this assay (P18484 1-620): as the sequence (P18484 1-620) above
Target sequence in this assay (P84092 whole entry): as the sequence (P84092 whole entry) above
Target sequence in this assay (P63010 1-592): as the sequence (P63010 1-592) above

T1 sequence (P62743 whole entry): as the sequence (P62743 whole entry, further chain) above
T1 sequence (P84092 whole entry): as the sequence (P84092 whole entry) above
T1 sequence (P63010 1-592): as the sequence (P63010 1-592) above
T1 sequence (P18484 1-620): as the sequence (P18484 1-620) above

**Q.** For PtdIns4,5P2, which Kd (AP2 core [1]) is on record?
**A.** 7 µM

**Q.** And the Kd (AP2 core [2])?
**A.** 11 µM

**Q.** What about the Kd (AP2 core [3]) of the same substance?
**A.** 30 µM
